The values that follow come from ChEMBL document CHEMBL1201862, “PubChem BioAssay data set” (2004).

Calls of active or inactive are those of the source. Where only a bound is given, the exact number is not on record here.

Assay [1] in a line: HEp-2 cell cytotoxicity, dose response, cytotoxicity control for RSV inhibitor project, HTS (AID 2410). The format is functional. Conditions: human respiratory syncytial virus.
Assay [2] deals with E3 ubiquitin-protein ligase Mdm2 (Homo sapiens, UniProt Q00987). The assay is described as follows: enhancers of MDM2-luciferase reporter signal, concentration-effect titration, project on inhibitors of MDM2 ubiquitin ligase, cellular assay, luminescent readout, 384-well plate format (AID 1394).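 Note: MDM2 E3 inhibitors raise luminescence so EC50 is for signal enhancement.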 The format is functional.
Sequence of E3 ubiquitin-protein ligase Mdm2 (Q00987 whole entry): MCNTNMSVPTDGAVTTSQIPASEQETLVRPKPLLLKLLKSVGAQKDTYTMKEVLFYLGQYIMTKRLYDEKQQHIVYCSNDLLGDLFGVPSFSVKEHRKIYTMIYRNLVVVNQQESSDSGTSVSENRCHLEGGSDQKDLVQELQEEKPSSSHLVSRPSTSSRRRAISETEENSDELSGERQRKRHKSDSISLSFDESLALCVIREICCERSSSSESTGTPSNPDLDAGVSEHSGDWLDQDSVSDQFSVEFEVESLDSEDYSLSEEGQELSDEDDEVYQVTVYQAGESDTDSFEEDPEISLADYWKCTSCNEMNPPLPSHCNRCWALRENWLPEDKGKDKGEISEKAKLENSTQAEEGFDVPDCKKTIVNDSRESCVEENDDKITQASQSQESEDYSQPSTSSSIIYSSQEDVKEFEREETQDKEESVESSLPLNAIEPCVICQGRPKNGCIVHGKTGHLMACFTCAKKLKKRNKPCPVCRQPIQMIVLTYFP
Assay [3] deals with T1, SUMO-activating enzyme (Homo sapiens, UniProt Q9UBT2). The assay can be described thus: SUMOylation inhibitor hit validation, confirmation, SUMOylation inhibitor project, biochemical, AlphaScreen (AID 2018). Format: functional.
T1 sequence (Q9UBE0 whole entry): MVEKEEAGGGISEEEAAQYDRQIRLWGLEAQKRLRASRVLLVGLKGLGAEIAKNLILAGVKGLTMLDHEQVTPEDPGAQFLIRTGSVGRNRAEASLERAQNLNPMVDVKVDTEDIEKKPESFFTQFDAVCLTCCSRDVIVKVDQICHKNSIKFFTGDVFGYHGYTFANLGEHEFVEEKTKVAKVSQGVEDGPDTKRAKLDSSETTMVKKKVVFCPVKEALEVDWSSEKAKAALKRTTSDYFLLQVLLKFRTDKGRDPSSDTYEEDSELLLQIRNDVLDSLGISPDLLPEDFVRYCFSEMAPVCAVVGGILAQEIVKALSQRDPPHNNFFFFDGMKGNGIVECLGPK
T1 sequence (Q9UBT2 whole entry): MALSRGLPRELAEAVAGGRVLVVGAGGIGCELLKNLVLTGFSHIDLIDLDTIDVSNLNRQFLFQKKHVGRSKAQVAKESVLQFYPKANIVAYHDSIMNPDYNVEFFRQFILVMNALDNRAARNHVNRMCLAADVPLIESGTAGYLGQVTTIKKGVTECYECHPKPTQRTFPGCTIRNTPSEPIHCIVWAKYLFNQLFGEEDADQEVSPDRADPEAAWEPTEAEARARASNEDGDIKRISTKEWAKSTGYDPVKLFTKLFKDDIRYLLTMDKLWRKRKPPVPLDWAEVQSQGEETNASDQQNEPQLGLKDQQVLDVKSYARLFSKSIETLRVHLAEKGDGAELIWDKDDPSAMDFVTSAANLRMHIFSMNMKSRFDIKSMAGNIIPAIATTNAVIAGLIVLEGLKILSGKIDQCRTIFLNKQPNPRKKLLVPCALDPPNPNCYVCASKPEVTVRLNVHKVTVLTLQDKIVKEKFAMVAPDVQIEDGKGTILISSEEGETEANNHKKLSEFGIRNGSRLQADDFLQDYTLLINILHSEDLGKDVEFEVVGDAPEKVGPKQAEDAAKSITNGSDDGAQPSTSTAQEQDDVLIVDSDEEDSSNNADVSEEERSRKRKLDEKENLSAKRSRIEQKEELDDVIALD
In assay [4] the target is T1, SUMO-activating enzyme. The assay can be described thus: inhibitors of in vitro SUMOylation cascade, primary screen, biochemical, HTRF, uHTS (AID 2006). The format is protein-complex assay.
Assay [5] is described as follows: microbe, parasite or virus in culture. The format is functional. Conditions: Mycobacterium tuberculosis.
In another assay the target is T2, Hexokinase HKDC1 (Homo sapiens, UniProt Q2TB90).
T2 sequence (Q2TB90 whole entry): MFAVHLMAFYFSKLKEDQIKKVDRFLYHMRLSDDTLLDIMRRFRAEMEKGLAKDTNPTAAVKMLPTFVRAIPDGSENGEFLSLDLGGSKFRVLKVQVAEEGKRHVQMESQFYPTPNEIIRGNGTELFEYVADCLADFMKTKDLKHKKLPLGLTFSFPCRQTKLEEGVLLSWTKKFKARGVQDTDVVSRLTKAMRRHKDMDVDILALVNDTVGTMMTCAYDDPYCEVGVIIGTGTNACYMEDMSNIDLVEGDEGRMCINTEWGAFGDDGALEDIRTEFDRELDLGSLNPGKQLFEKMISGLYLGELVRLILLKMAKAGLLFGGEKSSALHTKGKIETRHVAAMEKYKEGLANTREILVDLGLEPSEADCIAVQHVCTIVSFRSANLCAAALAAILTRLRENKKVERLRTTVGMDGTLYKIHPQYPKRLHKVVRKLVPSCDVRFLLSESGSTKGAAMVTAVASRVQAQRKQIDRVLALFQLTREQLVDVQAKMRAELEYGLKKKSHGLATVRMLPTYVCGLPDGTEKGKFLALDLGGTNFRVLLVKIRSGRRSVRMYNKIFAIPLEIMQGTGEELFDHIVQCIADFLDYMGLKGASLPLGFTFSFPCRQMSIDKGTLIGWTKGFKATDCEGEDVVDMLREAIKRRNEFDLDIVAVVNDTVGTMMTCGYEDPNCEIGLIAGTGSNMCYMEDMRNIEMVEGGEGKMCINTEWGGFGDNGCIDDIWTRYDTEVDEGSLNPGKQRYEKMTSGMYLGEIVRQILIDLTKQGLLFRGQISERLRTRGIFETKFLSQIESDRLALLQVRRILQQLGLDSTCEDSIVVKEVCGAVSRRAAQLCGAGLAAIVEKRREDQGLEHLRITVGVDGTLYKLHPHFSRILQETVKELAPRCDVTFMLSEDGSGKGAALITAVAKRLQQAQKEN
The assay is described as follows: HKDC1 hexokinase inhibitors, dose response, biochemical, W721R variant (AID 504729). The format is functional.

For assay [6], the target named is Dual specificity protein phosphatase 3 (Homo sapiens, UniProt P51452). The assay is described as follows: VHR1 inhibitor Ki determination, SAR follow-up, biochemical, colorimetric (AID 2004).
Sequence of Dual specificity protein phosphatase 3 (P51452 whole entry): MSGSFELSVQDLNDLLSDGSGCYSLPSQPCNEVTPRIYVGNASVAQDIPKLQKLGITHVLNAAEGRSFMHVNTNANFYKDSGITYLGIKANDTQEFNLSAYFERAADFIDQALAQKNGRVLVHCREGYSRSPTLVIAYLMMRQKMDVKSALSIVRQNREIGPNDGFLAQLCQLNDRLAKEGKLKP
Assay [7] can be described thus: NIH-3T3 fibroblast cytotoxicity, dose response, cytotoxicity control, cell-based, fluorescence, Alamar Blue, secondary assay (AID 2327).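 Note: NIH-3T3 mouse fibroblasts cultured with fluconazole at 8 µg/mL.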 Format: functional.
A short description of assay [8]: cells. The format is functional, cell-based.
Assay [9] is described as follows: C. albicans growth with fluconazole, confirmation, fluorescence, retest (AID 2467). Format: functional, cell-based.
Assay [10] in a line: cells. Format: functional, cell-based. The source holds these as a separate data set.
Assay [11] can be described thus: Luminescence Cell-Based Dose Retest to Confirm Inhibitors of Cancer Stem Cells. [Related pubchem assays (depositor defined):AID2717, AID2721]. The format is functional. Conditions: Homo sapiens.
Assay [12] deals with Cyclin-dependent kinase 5/CDK5 activator 1 (Homo sapiens, UniProt Q00535). The assay can be described thus: CDK5/p35 kinase inhibitors, dose response, biochemical, cherry-picked samples, set 2 (AID 504545).
Sequence of Cyclin-dependent kinase 5/CDK5 activator 1 (Q00535 whole entry): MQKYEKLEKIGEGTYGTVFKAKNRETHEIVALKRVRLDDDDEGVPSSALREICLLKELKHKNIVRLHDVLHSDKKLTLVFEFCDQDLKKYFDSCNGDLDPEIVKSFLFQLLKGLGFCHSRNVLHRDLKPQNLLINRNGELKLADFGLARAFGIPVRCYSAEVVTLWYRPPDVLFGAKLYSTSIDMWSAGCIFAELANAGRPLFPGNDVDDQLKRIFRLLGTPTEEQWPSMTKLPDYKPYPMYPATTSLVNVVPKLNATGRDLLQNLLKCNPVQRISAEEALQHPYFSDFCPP
Sequence of Cyclin-dependent kinase 5/CDK5 activator 1 (Q15078 whole entry, further chain): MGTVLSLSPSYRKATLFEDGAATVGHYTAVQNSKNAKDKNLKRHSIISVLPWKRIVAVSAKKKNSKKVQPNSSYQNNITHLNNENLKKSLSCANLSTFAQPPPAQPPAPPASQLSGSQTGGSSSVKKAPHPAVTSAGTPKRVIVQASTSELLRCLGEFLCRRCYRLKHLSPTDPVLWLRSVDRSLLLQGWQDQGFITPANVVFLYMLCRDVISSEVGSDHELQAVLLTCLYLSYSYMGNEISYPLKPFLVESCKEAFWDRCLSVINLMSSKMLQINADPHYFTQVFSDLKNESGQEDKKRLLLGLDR
The target of assay [13] is T3, Replicative DNA helicase DnaB (Mycobacterium tuberculosis, UniProt P9WMR3).
T3 sequence (P9WMR3 whole entry): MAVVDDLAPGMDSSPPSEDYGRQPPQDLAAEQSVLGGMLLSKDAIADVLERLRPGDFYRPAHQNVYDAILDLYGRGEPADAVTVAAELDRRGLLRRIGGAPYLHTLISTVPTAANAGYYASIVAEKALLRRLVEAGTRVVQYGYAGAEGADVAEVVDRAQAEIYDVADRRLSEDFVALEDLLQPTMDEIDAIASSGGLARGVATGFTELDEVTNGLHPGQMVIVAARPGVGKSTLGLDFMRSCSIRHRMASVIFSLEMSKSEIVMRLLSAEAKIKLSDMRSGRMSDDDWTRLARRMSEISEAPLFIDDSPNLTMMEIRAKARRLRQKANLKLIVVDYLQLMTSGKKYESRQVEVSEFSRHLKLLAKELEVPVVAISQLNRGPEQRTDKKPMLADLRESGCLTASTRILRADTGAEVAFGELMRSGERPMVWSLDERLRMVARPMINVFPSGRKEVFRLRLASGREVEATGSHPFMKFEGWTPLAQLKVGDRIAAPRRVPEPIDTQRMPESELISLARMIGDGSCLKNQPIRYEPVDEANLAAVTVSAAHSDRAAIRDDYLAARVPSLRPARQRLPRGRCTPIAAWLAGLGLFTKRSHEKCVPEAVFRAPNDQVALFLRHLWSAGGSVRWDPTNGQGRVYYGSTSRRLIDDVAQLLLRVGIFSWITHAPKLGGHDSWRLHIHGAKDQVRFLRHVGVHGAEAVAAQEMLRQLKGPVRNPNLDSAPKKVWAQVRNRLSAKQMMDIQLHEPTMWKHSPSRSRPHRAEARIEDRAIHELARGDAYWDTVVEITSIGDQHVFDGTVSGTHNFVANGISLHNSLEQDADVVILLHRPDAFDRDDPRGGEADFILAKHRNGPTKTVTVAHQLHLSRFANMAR
The assay can be described thus: DnaB intein splicing inhibitors, dose response, biochemical, cell-free fluorescence (AID 449749). Format: functional.

In another assay the target is T4, Protein RecA (Mycobacterium tuberculosis, UniProt P9WHJ3).
T4 sequence (P9WHJ3 whole entry): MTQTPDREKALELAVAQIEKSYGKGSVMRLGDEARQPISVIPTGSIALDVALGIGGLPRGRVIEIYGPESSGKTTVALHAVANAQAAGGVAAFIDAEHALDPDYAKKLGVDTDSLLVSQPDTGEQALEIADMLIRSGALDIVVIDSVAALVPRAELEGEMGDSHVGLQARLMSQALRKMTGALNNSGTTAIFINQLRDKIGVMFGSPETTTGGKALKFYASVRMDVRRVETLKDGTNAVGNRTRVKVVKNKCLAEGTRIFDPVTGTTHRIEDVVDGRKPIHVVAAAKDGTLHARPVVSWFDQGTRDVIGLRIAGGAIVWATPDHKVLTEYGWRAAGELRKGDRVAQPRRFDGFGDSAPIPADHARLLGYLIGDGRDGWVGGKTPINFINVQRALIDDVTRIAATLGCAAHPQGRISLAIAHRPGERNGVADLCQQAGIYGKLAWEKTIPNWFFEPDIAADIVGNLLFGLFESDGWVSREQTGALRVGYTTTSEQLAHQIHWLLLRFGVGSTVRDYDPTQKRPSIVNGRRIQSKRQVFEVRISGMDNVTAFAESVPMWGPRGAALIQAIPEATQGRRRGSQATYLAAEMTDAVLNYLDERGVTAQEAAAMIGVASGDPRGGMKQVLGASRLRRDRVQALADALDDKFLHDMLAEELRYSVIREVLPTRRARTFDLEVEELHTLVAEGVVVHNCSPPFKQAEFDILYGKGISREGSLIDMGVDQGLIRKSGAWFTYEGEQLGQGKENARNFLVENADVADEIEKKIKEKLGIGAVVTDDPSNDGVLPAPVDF
The assay can be described thus: Fluorescence Cell-Free Homogeneous Dose Retest to Identify Inhibitors of RecA-Intein Splicing Activity. [Related pubchem assays (depositor defined):AID2097, AID2223, AID489010, AID492950]. The format is functional.

The target in assay [14] is Dual specificity tyrosine-phosphorylation-regulated kinase 1A (Rattus norvegicus, UniProt Q63470). Format: biochemical, Homo sapiens.
The nature of assay [15]: HeLa cell cytotoxicity, dose response, cytotoxicity control for MgcRacGAP inhibitor project (AID 624300). The format is functional.
Assay [16] deals with T5, Rac GTPase-activating protein 1 (Homo sapiens, UniProt Q9H0H5).
T5 sequence (Q9H0H5 whole entry): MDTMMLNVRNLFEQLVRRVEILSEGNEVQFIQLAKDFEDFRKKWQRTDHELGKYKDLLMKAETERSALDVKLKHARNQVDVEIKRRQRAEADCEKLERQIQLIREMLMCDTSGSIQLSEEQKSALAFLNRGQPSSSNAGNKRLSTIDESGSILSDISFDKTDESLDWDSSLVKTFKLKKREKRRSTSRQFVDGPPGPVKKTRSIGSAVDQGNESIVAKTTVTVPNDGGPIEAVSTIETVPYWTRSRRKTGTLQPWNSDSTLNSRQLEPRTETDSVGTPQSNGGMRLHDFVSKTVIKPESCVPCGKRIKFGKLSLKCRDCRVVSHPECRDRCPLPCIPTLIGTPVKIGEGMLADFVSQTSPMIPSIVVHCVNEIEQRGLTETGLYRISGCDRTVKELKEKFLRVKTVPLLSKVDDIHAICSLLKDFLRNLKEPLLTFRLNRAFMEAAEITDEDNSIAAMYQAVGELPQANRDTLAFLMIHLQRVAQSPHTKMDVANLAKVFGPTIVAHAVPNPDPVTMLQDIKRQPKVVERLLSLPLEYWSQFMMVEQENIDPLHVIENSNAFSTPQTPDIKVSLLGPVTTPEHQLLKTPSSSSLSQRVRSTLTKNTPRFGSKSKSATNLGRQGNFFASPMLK
The assay can be described thus: MgcRacGAP GTPase-activating activity inhibitors, confirmation, biochemical, ADP Hunter fluorescence, primary and confirmatory (AID 624330). Format: functional.

Consider `COc1cc(NC(=O)c2cnc(N)s2)cc(C(=O)Nc2cccc(C(F)(F)F)c2)c1`, for which the CC50 is 23.6 µM (active) in [1] and > 40 µM (active) in assay [5]. The EC50 in [2] is 22.9 µM (not active). Further, the IC50 at SUMO-activating enzyme [3] is 10.8 µM (active); on SUMO-activating enzyme [4], 34.5 µM (active); at Hexokinase HKDC1, 10.5 µM (active).
As for `Fc1c(F)c(C(F)(F)F)c(F)c(F)c1Oc1cccc2cccnc12`, in [6], the Ki was 122 µM (inactive).
Regarding `Oc1ccc(/C=N/Nc2ccc(C(F)(F)F)cn2)c(O)c1`, the EC50 in [7] was > 150 µM (inactive); in the assay “cells [8]” it was 27.7 µM (active); in assay [9], > 38 µM (not active); in the assay “cells [10]”, 44.7 µM (active); on Protein RecA it was 110 µM (inconclusive). Moreover, the AC50 in assay [11] is 8.01 µM (active); in assay [12] it was 11.8 µM (active); in [13], 81.4 µM (active); in assay [14], 5.23 µM (active). In addition, the CC50 in [15] is 100 µM (active). Besides, the IC50 in [16] was 37 µM (active).
